Experimental data from PMC4178217, “Quinoline 3-sulfonamides inhibit lactate dehydrogenase A and reverse aerobic glycolysis in cancer cells” (Cancer & Metabolism, 2013).
Read-outs that look alike come from different tables or passages of the source.

Experiments:
recombinant human LDHA = recombinant human LDHA (Homo sapiens, UniProt P00338); assay: LDHA enzymatic assay with increasing levels of NADH; format: biochemical; conditions: NADH 120 μM; read-out: LDHA IC50 at high NADH
Experimental: LDHA enzymatic assay with increasing levels of NADH The following reaction was assembled in clear-bottom 96 well plate: 50 mM phosphate buffer pH 7.0, 50 mM NaCl, 0.25 mM CHAPS, 200 µM NaPyruvate, 250 pM recombinant human LDHA, and the indicated amounts of NADH and Compound 2. Absorbance change due to NADH conversion to NAD^+ was read on SpectraMax M2 (Molecular Devices, Sunnyvale, CA) at 340 nm every 40 sec for 6 min.

Snu398 cells [1] = assay: Compound cellular permeability assay, cytosolic extract; format: in vitro ADME, human; conditions: Snu398 treated with 1 μM for 1.5 h, LC/MS/MS
Experimental: The medium was removed, cells were washed in phosphate-buffered saline (PBS), and cytosolic extracts were prepared by solubilization in Qproteome lysis buffer (Qiagen, Valencia, CA). […] The medium was removed, cells were washed in PBS and solubilized in 50:50 mixture of methanol and acetonitrile. Compound concentration in the cytosolic or whole-cell extract was determined by LC/MS/MS analysis. An Acquity UPLC system (Waters Inc., Milford, MA) was coupled to an API 4000 or API 5000 triple-quad mass spectrometer (Applied Biosystems). […] Compound concentration in cells was determined by counting the number of cells in sample wells and assuming 3 pL/cell volume.

recombinant human LDHB = recombinant human LDHB (Homo sapiens, UniProt P07195); assay: recombinant human LDHB enzyme assay (lactate to pyruvate, NADH via diaphorase/resazurin)
Snu398 cells [2] = assay: 13C NMR spectroscopy of glucose consumption and lactate production, Snu398; format: cell-based, human
Experimental: After this pre-incubation, cells were washed in PBS and resuspended in 400 μL of glucose-free RPMI supplemented with 10% deuterium oxide, 11 mM D-(1,6-^13C2)glucose, and LDHA inhibitor or DMSO. An additional 600 μL of the same medium was gently added to top off the resuspended cells. Five mm NMR tubes with reduced sample depth (Shigemi Inc, Allison Park, PA, USA) were used to ensure that the cells remain inside the active volume of the receiver coil of the probe. […] . Prior to Fourier transformation, sensitivity and resolution were enhanced by applying an exponential line-broadening of 1 Hz over the first 32,000 data points and then zero filled to 256,000 data points. Spectra were analyzed using in-house data analysis software.

HepG2 cells = assay: Oxygen consumption and extracellular acidification rates, HepG2 (Seahorse); format: cell-based, human; conditions: for EC50: Homo sapiens, 92 min, HepG2, 92 minutes after addition
Experimental: One hundred twenty thousand Snu398 or HepG2 human hepatocellular carcinoma cells per well were plated in XF24 PS or XF96 PET cell culture microplates (Seahorse Biosciences, North Billerica, MA, USA) and allowed to attach and proliferate for 18 h. Cells were equilibrated with DMEM lacking bicarbonate (Seahorse Biosciences) supplemented with glucose at 37°C for 1 h in an incubator lacking CO2. The rate of change of dissolved O2 (oxygen consumption rate, OCR) and rate of change of pH (extracellular acidification rate, ECAR) in medium immediately surrounding the cells was measured in the XF24 Analyzer (Seahorse Biosciences) per manufacturer’s instructions. Compound doses were injected into the wells at the indicated times. For dose response curves, the OCR and ECAR levels obtained in each well before compound addition were subtracted from the values obtained 92 minutes after compound addition.
For XF96 experiments breast cancer cells were seeded in DMEM without bicarbonate at 16,000/well in XF96 V3 PET plates (Seahorse Biosciences) coated with CellTak (BD Biosciences, San Jose, CA, USA). […] HepG2 cells were seeded at 16K/well in XF96 V3 PET plates and left overnight for attachment. The medium was exchanged with DMEM without bicarbonate prior to readings on the XF96 Analyzer (Seahorse Biosciences).

Snu398 cells [3] = assay: Pyruvate kinase (PK) activity, Snu398; format: cell-based; conditions: Homo sapiens, SNU-398; Snu398, 6 h
Experimental: One and a half million cells per well were plated in 6-well tissue culture plates in R10 medium and allowed to attach overnight. The following morning, cells were washed and medium replaced with 2 mL/well of low-glucose medium. DMSO control or the indicated doses of LDHA inhibitor dissolved in DMSO were added to the wells and cells were incubated at 37°C for 6 h. Following the incubation, cells were washed, scraped into 200 μl of distilled de-ionized water and homogenized on ice using OMNI THq homogenizer (Omni International, Kennesaw, GA, USA). Homogenates were cleared by centrifugation and protein concentration measured by bicinchoninic acid (BCA) assay (Thermo Fisher Scientific, Waltham, MA, USA). PK activity was determined using PK Activity kit (BioVision Research Products) per manufacturer’s instructions and normalized to protein concentration. For detection of PKM2 oligomerization, the same protein samples were separated by non-denaturing gel electrophoresis using the NativePAGE™ gel system (Life Technologies), transferred onto polyvinylidene difluoride (PVDF) membranes and subjected to western immunoblotting with anti-PKM2 antibody.

PK analysis in rats = format: in vivo, male Sprague–Dawley rats
Experimental: All studies were conducted after review by the Institutional Animal Care and Use Committee at GlaxoSmithKline (GSK) and in accordance with the GSK Policy on the Care, Welfare and Treatment of Laboratory Animals.

Snu398 cells [4] = assay: Compound cellular permeability assay, whole-cell extract; format: in vitro ADME, human; conditions: Snu398 treated with 1 μM for 1.5 h
Experimental: Compound cellular permeability assays For cytosolic permeability assay, twelve million Snu398 cells were allowed to attach overnight and treated with DMSO control or 1 µM Compound 2 for 1.5 h in 1.7 mM glucose medium. The medium was removed, cells were washed in phosphate-buffered saline (PBS), and cytosolic extracts were prepared by solubilization in Qproteome lysis buffer (Qiagen, Valencia, CA). For whole-cell permeability assay, 75,000 Snu398 cells/well were plated in 96-well plates and treated with DMSO control or 1 µM compounds for 1.5h in low glucose medium. The medium was removed, cells were washed in PBS and solubilized in 50:50 mixture of methanol and acetonitrile. Compound concentration in the cytosolic or whole-cell extract was determined by LC/MS/MS analysis. An Acquity UPLC system (Waters Inc., Milford, MA) was coupled to an API 4000 or API 5000 triple-quad mass spectrometer (Applied Biosystems). […] Compound concentration in cells was determined by counting the number of cells in sample wells and assuming 3 pL/cell volume.

cancer cell lines = assay: Lactate production assay, panel of cancer cell lines; conditions: Homo sapiens, read-out: lactate production EC50 across cell lines

recombinant human LDHB, sequence (P07195 whole entry): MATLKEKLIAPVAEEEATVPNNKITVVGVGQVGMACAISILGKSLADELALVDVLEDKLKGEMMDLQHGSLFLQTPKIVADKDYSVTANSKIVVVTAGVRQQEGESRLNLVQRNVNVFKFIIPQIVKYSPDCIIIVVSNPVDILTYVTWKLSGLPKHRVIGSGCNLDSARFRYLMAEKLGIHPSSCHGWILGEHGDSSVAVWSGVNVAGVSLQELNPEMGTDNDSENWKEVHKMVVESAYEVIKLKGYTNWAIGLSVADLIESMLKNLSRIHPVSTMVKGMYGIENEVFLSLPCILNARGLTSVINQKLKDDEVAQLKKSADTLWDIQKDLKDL

With `COc1ncc(-c2ccc3c(Nc4cc(C(=O)O)cc(C5CCCC5)c4)c(S(=O)(=O)NC4CC4)cnc3c2)c(OC)n1` [Compound 2] the IC50 (recombinant human LDHA) was 67 nM, the “apparent intracellular concentration (cytosolic extract)” value (Snu398 cells [1]) was 18 µM and the IC50 (recombinant human LDHB) was 220 ± 20 nM.

For `COc1ncc(-c2ccc3c(Nc4cc(Oc5cc(F)cc(F)c5)cc(C(=O)O)c4)c(S(=O)(=O)NC4CC4)cnc3c2)c(OC)n1` [Compound 1], the “(3-13C)lactate production” value (Snu398 cells [2]; Snu398, 10 μM) was “significantly slowed down lactate production”, the “D-(1,6-13C2)glucose consumption” value (Snu398 cells [2]; Snu398 versus HepG2, 10 μM) was “only affected glucose consumption in Snu398 cells” and the “oligomycin-dependent OCR (OCROLG)” value (HepG2 cells; 10 μM) was “OCROLG was reduced”. For the same molecule, the “oligomycin-dependent OCR (OCROLG)” value (HepG2 cells; 1 to 3 μM, glucose/glutamine medium) was “increased oligomycin-dependent OCR”, the EC50 (HepG2 cells; read-out: ECAR change EC50) was 600 ± 100 nM and the EC50 (HepG2 cells; read-out: OCR change EC50) was 900 ± 300 nM. The EC50 (Snu398 cells [3]) was 600 nM, the clearance (PK analysis in rats; male, Sprague-Dawley, rat, whole blood, IV infusion 0.25 mg/kg) was 69 mL/min/kg and the blood compound level (PK analysis in rats; oral 50 mg/kg, detection limit 2.5 ng/mL) was ≤ 2.5 ng/mL. The “apparent intracellular concentration versus medium” value (Snu398 cells [4]) was “higher apparent intracellular concentrations than that of the medium” and the EC50 (cancer cell lines) was ≥ 400 nM.
